Patent publication US20230125212A1, “MEANS AND METHODS FOR ENHANCING CA[…]” (priority 2020, published 2023)

Test system: pilocarpine-induced epilepsy
Assay: Rat model of pilocarpine-induced epilepsy, seizure scoring by Racine scale
Assay type: in vivo
Details: CBD 25 mg/kg IP; cumulative Racine score over 120 min after pilocarpine 350 mg/kg
Description: Objective: The aim of the current study is to assess the effect of a new CBD formulation as seizures protection in the rat model of pilocarpine-induced epilepsy.
Study variables and endpoints: The formulation is administered IP (Intraperitoneally). The animals are assessed for: • a. Mortality & morbidity—Twice daily • b. Body weight monitoring—During acclimation and before Test Item (TI) dosing (Day 1) • c. Clinical signs—Before TI dosing, continuous follow-up during the first two hours following Pilocarpine administration. Monitoring of number and duration of seizures during 120 minutes following pilocarpine administration (Seizures rating according to Racine scale). • d. Study termination—At the end of the seizures' observation (120 minutes after Pilocarpine administration) animals are sedated with Ketamine/Xylazine mixture and are subjected to pericardial perfusion with PBS and PFA 4%, brains will be removed and stored in PFA 4% until histopathological analysis
Administration of the Test Items Each Test Item and vehicle formulation are administered to tested animals, according to Table. […]
Seizure scoring: Following model induction by Pilocarpine injection, the animals are video recorded for 2 hours. The videos are analyzed and seizures rating are recorded according to the following Racine scale below. • a. […]

C=C(C)[C@@H]1CCC(C)=C[C@H]1c1c(O)cc(CCCCC)cc1O [CBD, Cannabidiol]
AV-Seizure Score: 29.2
